Experimental data reported in publication PMC9718554, “Discovery of a fragment hit compound targeting D-Ala:D-Ala ligase of bacterial peptidoglycan biosynthesis” (Journal of Enzyme Inhibition and Medicinal Chemistry, 2022).
Like-named read-outs stand apart in the source and are kept apart here.

Target: T1, E. coli DdlB enzyme (D-alanine:D-alanine ligase) (Escherichia coli, UniProt P07862)
T1 construct: made in house; host or cells: E. coli
Assay: biochemical
Conditions: read-out: DdlB RA; for remaining activity at 2100 µM: tested concentration 2.1 mM; for remaining activity at 1900 µM: tested concentration 1.9 mM; for remaining activity at 2200 µM: tested concentration 2.2 mM; for remaining activity at 2300 µM: tested concentration 2.3 mM; for remaining activity at 2000 µM: tested concentration 2.0 mM; for remaining activity at 1700 µM: tested concentration 1.7 mM; for remaining activity at 1800 µM: tested concentration 1.8 mM; for remaining activity at 2600 µM: tested concentration 2.6 mM; for remaining activity at 3000 µM: tested concentration 3.0 mM; for remaining activity at 3300 µM: tested concentration 3.3 mM; for remaining activity at 2400 µM: tested concentration 2.4 mM; for remaining activity at 2500 µM: tested concentration 2.5 mM; for remaining activity at 2900 µM: tested concentration 2.9 mM; for remaining activity at 2800 µM: tested concentration 2.8 mM

[1] = residual activity of DdlB, fragment library screening

Cc1nc2ccccc2c(O)c1S(=O)(=O)O [Compound L150-1119]
remaining activity at 2100 µM: 90%

O=C(Cc1c[nH]c2ncccc12)NCc1ccccc1 [Compound M508-0504]
remaining activity at 1900 µM (residual activity): 82%

CC(C)CNC(=O)Cc1c[nH]c2ncccc12 [Compound M508-0619]
remaining activity at 2200 µM (residual activity): 94%

CCCN(C)C(=O)Cc1c[nH]c2ncccc12 [Compound M508-0627]
remaining activity at 2200 µM (residual activity): 86%

CNC(=O)NCCc1c[nH]c2ncccc12 [Compound M509-0295]
remaining activity at 2300 µM (residual activity): 80%

Cc1ccc(S(=O)(=O)N2CCc3[nH]cnc3C2)cc1 [Compound M512-0400]
remaining activity at 2000 µM (residual activity): 94%

Cc1nnc(C2CCCCN2C(=O)NC2CCCCC2)[nH]1 (stereo not drawn) [Compound M754-0764]
remaining activity at 1700 µM (residual activity): 77%

Cc1cccc(C(=O)N2CCCCC2c2nnc(C)[nH]2)c1 (stereo not drawn) [Compound M754-0809]
remaining activity at 1800 µM (residual activity): 89%

O=C(c1ccco1)N1CCCCC1c1nnc(C2CC2)[nH]1 (stereo not drawn) [Compound M754-1192]
remaining activity at 1700 µM (residual activity): 90%

Cc1cccc(Nc2ncccc2S(N)(=O)=O)c1 [Compound M784-3114]
remaining activity at 1900 µM: 94%

Cc1ccc(Nc2ncccc2S(N)(=O)=O)cc1 [Compound M784-3115]
remaining activity at 1900 µM: 85%

CCNc1cc(N2CCC(CCC(=O)O)CC2)ncn1 [Compound P207-8919]
remaining activity at 1800 µM (fragment library screening): 83%

Cn1ncc(N2CCC[C@@H](C(=O)O)C2)cc1=O [Compound P207-8929]
remaining activity at 2100 µM: 92%

Cc1ccc2cc(CCC(=O)O)c(O)nc2c1 [Compound P207-8939]
remaining activity at 2600 µM: 93%

Cn1nc(C(=O)O)c2c1CCOC2 [Compound P207-8979]
remaining activity at 3000 µM [1]: 88%

CN1CCC(Oc2ncccc2C(=O)O)CC1 [Compound P391-0905]
remaining activity at 2100 µM: 92%

Cc1cccc(Cc2n[nH]c(CC(=O)NC3CCCC3)n2)c1 [Compound P496-1655]
remaining activity at 1700 µM: 97%

O=C(NCc1c[nH]c2ncccc12)C1CCC1 [Compound P610-0073]
remaining activity at 2200 µM (residual activity): 90%

Cc1ccccc1NS(=O)(=O)c1c[nH]c2ncccc12 [Compound P633-0038]
remaining activity at 1700 µM (residual activity): 89%

O=S(=O)(c1c[nH]c2ncccc12)N1CCc2ccccc21 [Compound P633-0115]
remaining activity at 1700 µM: 83%

CCn1cc(S(=O)(=O)NC2CCCC2)c2cccnc21 [Compound P633-0557F]
remaining activity at 2000 µM (residual activity): 89%

O=C(C1CCCN(C(=O)C2CCC2)C1)N1CCOCC1 (stereo not drawn) [Compound P773-6398]
remaining activity at 2000 µM (residual activity): 98%

O=C(Nc1nnc[nH]1)C1CCC1 [Compound P774-4606]
remaining activity at 3000 µM [1]: 94%

CCn1cnnc1CC1CCNC1 (stereo not drawn) [Compound P936-0678]
remaining activity at 3300 µM [1]: 90%

CC(=O)N1CCCC(c2nn(C)c(=O)n2C2CCCC2)C1 (stereo not drawn) [Compound P940-4223]
remaining activity at 2100 µM (residual activity): 96%

O=C(Cc1ccccc1)NCC1CCOCC1 [Compound P970-0162]
remaining activity at 2600 µM: 92%

CC1(CNC(=O)c2ccccc2Cl)CCOCC1 [Compound P970-0504]
remaining activity at 2200 µM (residual activity): 94%

Cc1ccc(C(=O)N(C)CC2(C)CCOCC2)cn1 [Compound P970-1095]
remaining activity at 2300 µM (residual activity): 94%

NS(=O)(=O)c1cccc2cccnc12 [Compound R005-0042]
remaining activity at 2400 µM: 88%

O=C(O)c1cc(-c2ccc3c(c2)OCO3)on1 [Compound R314-0020]
remaining activity at 2100 µM (residual activity): 114%

CCOc1ncccc1CN [Compound S055-1650]
remaining activity at 3300 µM [1]: 89%

Cn1nccc1C(=O)N1CCC(Nc2cccnc2)C1 (stereo not drawn) [Compound S059-0159]
remaining activity at 2200 µM (residual activity): 85%

CCNC(=O)N1CCC(c2noc(-c3ccccc3)n2)C1 (stereo not drawn) [Compound S069-0392]
remaining activity at 1900 µM (residual activity): 94%

c1cnc(-c2nc(C3CCNC3)no2)cn1 (stereo not drawn) [Compound S069-3207]
remaining activity at 1700 µM: 95%

CN(CC1CCOC1)C(=O)NC1CCCCC1 (stereo not drawn) [Compound S213-1594]
remaining activity at 2500 µM: 91%

Cc1ccc(F)cc1S(=O)(=O)N(C)CC1CCOC1 (stereo not drawn) [Compound S213-1645]
remaining activity at 2100 µM (residual activity): 102%

Cc1cc(C)cc(NC(=O)N(C)CC2CCOC2)c1 (stereo not drawn) [Compound S213-1693]
remaining activity at 2100 µM (residual activity): 96%

Cc1ccc(C)c(C(=O)N(C)CC2CCOC2)c1 (stereo not drawn) [Compound S213-1736]
remaining activity at 2400 µM: 99%

CN(CC1CCOC1)C(=O)C1CC1 (stereo not drawn) [Compound S213-1842]
remaining activity at 3000 µM [1]: 91%

CCc1nc(N2CCOCC2)ncc1C(=O)O [Compound S272-0074]
remaining activity at 2500 µM: 91%

CCc1nc(NCc2ccncc2)ncc1C(=O)O [Compound S272-1779]
remaining activity at 1900 µM (fragment library screening): 93%

NCCc1noc(C2CC2)n1 [Compound S399-0482]
remaining activity at 2600 µM [1]: 95%

CCC(=O)N1CCC(CC(=O)N2CCOCC2)C1 (stereo not drawn) [Compound S421-0882]
remaining activity at 2000 µM: 70%

CCOc1ccc2c(n1)CCN(C(=O)C1CC1)C2 [Compound S422-0032]
remaining activity at 2000 µM: 97%

CC(C(=O)NCc1cc(F)cc(F)c1)C1CCOCC1 (stereo not drawn) [Compound S424-0231]
remaining activity at 2100 µM (residual activity): 92%

CC(C)(C(=O)O)C1CCOCC1 [Compound S424-0502]
remaining activity at 2900 µM: 98%

CCC(=O)N1CCC(c2nc(C3CCOCC3)no2)C1 (stereo not drawn) [Compound S428-0464]
remaining activity at 2100 µM (residual activity): 95%

CC(C)C(=O)N1CCC2(CCNC(=O)CC2)CC1 [Compound S509-1270]
remaining activity at 2000 µM: 93%

CCCNC(=O)N1CCC2(CCC(=O)N(C)CC2)CC1 [Compound S509-1557]
remaining activity at 2000 µM (residual activity): 98%

COc1cccc(CNC(=O)C2CCCCC(=O)N2C)c1 (stereo not drawn) [Compound S513-0092]
remaining activity at 1900 µM (residual activity): 97%

CC1(C(=O)O)CCCCC(=O)N1 (stereo not drawn) [Compound S515-0278]
remaining activity at 2900 µM: 93%

CCC1(C(=O)NC2CCCCCC2)CCCCC(=O)N1 (stereo not drawn) [Compound S515-0307]
remaining activity at 2100 µM (residual activity): 99%

CN1CCC2(CC1)CNCc1ccccc1O2 [Compound S530-0066]
remaining activity at 2200 µM: 94%

O=C1NC(C(=O)O)Cn2cccc21 (stereo not drawn) [Compound S531-0139]
remaining activity at 2800 µM: 90%

Cc1ccc(CNC(=O)C2Cn3cccc3C(=O)N2C)o1 (stereo not drawn) [Compound S531-0187]
remaining activity at 1700 µM (residual activity): 92%

Cc1nc(N2CCC(C(=O)O)CC2)cc(C(F)(F)F)n1 [Compound S553-0322]
remaining activity at 1700 µM: 105%

CCn1cnnc1-c1nn(C)c2c1CNCC2 [Compound S565-0571]
remaining activity at 2000 µM: 89%

O=C1CCC2(CNC(=O)C3CCOCC3)CCCC=C2N1 (stereo not drawn) [Compound S570-0163]
remaining activity at 2100 µM (residual activity): 94%

CN1CCCCC(CC(=O)O)C1=O (stereo not drawn) [Compound S581-1125]
remaining activity at 2700 µM (tested concentration 2.7 mM): 95%

Cc1noc(C)c1C(=O)NCC1Cn2cccc2CN1C (stereo not drawn) [Compound S590-0019]
remaining activity at 2100 µM (residual activity): 45%

CCc1ccc(C(=O)N2CCC(C3CCNC3)CC2)cc1 (stereo not drawn) [Compound S632-2763]
remaining activity at 1700 µM (residual activity): 69%

COCC1CN(C(C)=O)CC12CCNCC2 (stereo not drawn) [Compound S635-3083]
remaining activity at 1900 µM: 93%

NC(=O)CN1C(=O)C2(CCCCC2)C1c1ccccc1 (stereo not drawn) [Compound S642-0104]
remaining activity at 2200 µM (residual activity): 96%

CCS(=O)(=O)N1CCC2(CCC2OC)CC1 (stereo not drawn) [Compound S664-0247]
remaining activity at 2000 µM: 92%

Cc1ncoc1C(=O)N1CCCC(n2c(C)cnc2C)C1 (stereo not drawn) [Compound S692-1464]
remaining activity at 2100 µM (residual activity): 96%

CCn1nccc1C(=O)N1CC(n2ccnc2C)C1 [Compound S695-2086]
remaining activity at 1900 µM: 95%

Cc1noc(C)c1S(=O)(=O)N1CC(n2ccnc2)C1 [Compound S695-2555]
remaining activity at 2100 µM (residual activity): 97%

CC(C)C(=O)N1CC(n2cc(C(=O)N(C)C)nn2)C1 [Compound S724-0111]
remaining activity at 2300 µM (residual activity): 97%

COCc1cn(C2CNC2)nn1 [Compound S727-0003]
remaining activity at 2900 µM [1]: 7.54%

Cc1cnc(C)n1CCNC(=O)C1CC=CC1 [Compound S751-1890]
remaining activity at 2600 µM: 98%

O=C(c1ccoc1)N1C[C@@H](CO)[C@H](c2ccncc2)C1 [Compound S824-2534]
remaining activity at 2200 µM (residual activity): 95%

CC(=O)NCC1CNCC12CCCCC2 (stereo not drawn) [Compound S855-0002]
remaining activity at 2200 µM: 85%

O=C(c1n[nH]c2ccccc12)N1C[C@H]2CCC[C@@H](O)[C@H]2C1 [Compound S890-0272]
remaining activity at 1800 µM (residual activity): 95%

O=C1CCC2(CCN(S(=O)(=O)c3ccccc3)C2)N1 (stereo not drawn) [Compound S914-0001]
remaining activity at 2100 µM (residual activity): 101%

O=S(=O)(c1cccnc1)N1CCC2(CCC2O)CC1 (stereo not drawn) [Compound S971-1046]
remaining activity at 1800 µM (residual activity): 89%

CC1(O)CCC12CCN(C(=O)CC1CC1)CC2 (stereo not drawn) [Compound S971-1224]
remaining activity at 2500 µM: 75%

Cc1cccnc1C(=O)N1CCC2(CC1)CCC2(C)O (stereo not drawn) [Compound S971-1225]
remaining activity at 2200 µM (residual activity): 97%

C#CC(=O)NCc1ccc(F)cc1F [Compound T001-0851]
remaining activity at 2800 µM: 93%

CC#CC(=O)NCc1cc(F)ccc1F [Compound T001-0919]
remaining activity at 2900 µM: 89%

CC#CC(=O)N(C)CCc1cn[nH]c1 [Compound T001-1282]
remaining activity at 2900 µM: 86%

C#CC(=O)NC(C)c1c(C)nn(C)c1C (stereo not drawn) [Compound T001-1381]
remaining activity at 2400 µM: 87%
